According to patent US6689789B2, “Compounds useful for inhibition of farnesyl protein transferase” (Schering Corporation, priority 1997, dated 2004):

molecular target: farnesyl protein transferase (Homo sapiens, UniProt P49356); test: FPT IC50, inhibition of farnesyl protein transferase, in vitro enzyme assay; format: biochemical; conditions: procedure of WO 95/10516
Method: FPT IC50 (inhibition of farnesyl protein transferase, in vitro enzyme assay) and COS Cell IC50 (Cell-Based Assay) were determined following the assay procedures described in WO 95/10516, published Apr. 20, 1995. GGPT IC50 (inhibition of geranylgeranyl protein transferase, in vitro enzyme assay), Cell Mat Assay, and anti-tumor activity (in vivo anti-tumor studies) could be determined by the assay procedures described in WO 95/10516. The disclosure of WO 95/10516 is incorporated herein by reference thereto.

Compound	IC50
O=C(Cc1cc[n+]([O-])cc1)N1CCC(C2(O)c3ncc(Br)cc3CCc3cc(Cl)cc(Br)c32)CC1 (centres unmarked) [Example #1 Step C, 4-(3,10-dibromo-8-chloro-6,11-dihydro-11-hydroxy-5H-benzo[5,6]cyclohepta[1,2-b]pyridin-11-yl)-1-(4-pyridinylacetyl)piperidine N1-oxide]	< 0.002 µM
CC(C)(C)OC(=O)N1CCC(CC(=O)N2CCC(C3(O)c4ncc(Br)cc4CCc4cc(Cl)cc(Br)c43)CC2)CC1 (centres unmarked) [Example #2 Step A, 4-(3,10-dibromo-8-chloro-6,11-dihydro-11-hydroxy-5H-benzo[5,6]cyclohepta[1,2-b]pyridin-11-yl)-1-(N-BOC-4-piperdinylacetyl)piperidine]	0.042 µM
O=C(CC1CCNCC1)N1CCC(C2(O)c3ncc(Br)cc3CCc3cc(Cl)cc(Br)c32)CC1 (centres unmarked) [Example #2 Step B, 4-[2-[4-(3,10-dibromo-8-chloro-6,11-dihydro-11-hydroxy-5H-benzo[5,6]-cyclohepta[1,2-b]pyridin-11-yl)-1-piperdinyl]-2-oxoethyl]-1-piperidine]	0.0125 µM
NC(=O)N1CCC(CC(=O)N2CCC(C3(O)c4ncc(Br)cc4CCc4cc(Cl)cc(Br)c43)CC2)CC1 (centres unmarked) [Example #2 Step C, 4-[2-[4-(3,10-dibromo-8-chloro-6,11-dihydro-11-hydroxy-5H-benzo[5,6]cyclohepta[1,2-b]pyridin-11-yl)-1-piperdinyl]-2-oxoethyl]-1-piperidinecarboxamide]	0.0108 µM
NC(=O)CN1CCC(CC(=O)N2CCC(C3(O)c4ncc(Br)cc4CCc4cc(Cl)cc(Br)c43)CC2)CC1 (centres unmarked) [compound 3, 4-[2-[4-(3,10-dibromo-8-chloro-6,11-dihydro-11-hydroxy-5H-benzo[5,6]cyclohepta-[1,2-B]pyridin-11-yl)-1-piperidinyl]-2-oxoethyl]-1-piperidineacetamide]	0.0087 µM
